Values of other authors in article PMC5111365 (The Analyst, 2016).
No end group written: not given here. *: point of attachment. 5FAM = O=C1OC2(c3ccc(O)cc3Oc3cc(O)ccc32)c2ccc(C(=O)*)cc21

Key:
[1] = 3 mg mL^-1 total protein, data from previous work
[2] = biological target: Abl-1 human recombinant protein (Homo sapiens, UniProt P00519); settings: 12 nM kinase; data from previous work
Abl-1 human recombinant protein, sequence (P00519 whole entry): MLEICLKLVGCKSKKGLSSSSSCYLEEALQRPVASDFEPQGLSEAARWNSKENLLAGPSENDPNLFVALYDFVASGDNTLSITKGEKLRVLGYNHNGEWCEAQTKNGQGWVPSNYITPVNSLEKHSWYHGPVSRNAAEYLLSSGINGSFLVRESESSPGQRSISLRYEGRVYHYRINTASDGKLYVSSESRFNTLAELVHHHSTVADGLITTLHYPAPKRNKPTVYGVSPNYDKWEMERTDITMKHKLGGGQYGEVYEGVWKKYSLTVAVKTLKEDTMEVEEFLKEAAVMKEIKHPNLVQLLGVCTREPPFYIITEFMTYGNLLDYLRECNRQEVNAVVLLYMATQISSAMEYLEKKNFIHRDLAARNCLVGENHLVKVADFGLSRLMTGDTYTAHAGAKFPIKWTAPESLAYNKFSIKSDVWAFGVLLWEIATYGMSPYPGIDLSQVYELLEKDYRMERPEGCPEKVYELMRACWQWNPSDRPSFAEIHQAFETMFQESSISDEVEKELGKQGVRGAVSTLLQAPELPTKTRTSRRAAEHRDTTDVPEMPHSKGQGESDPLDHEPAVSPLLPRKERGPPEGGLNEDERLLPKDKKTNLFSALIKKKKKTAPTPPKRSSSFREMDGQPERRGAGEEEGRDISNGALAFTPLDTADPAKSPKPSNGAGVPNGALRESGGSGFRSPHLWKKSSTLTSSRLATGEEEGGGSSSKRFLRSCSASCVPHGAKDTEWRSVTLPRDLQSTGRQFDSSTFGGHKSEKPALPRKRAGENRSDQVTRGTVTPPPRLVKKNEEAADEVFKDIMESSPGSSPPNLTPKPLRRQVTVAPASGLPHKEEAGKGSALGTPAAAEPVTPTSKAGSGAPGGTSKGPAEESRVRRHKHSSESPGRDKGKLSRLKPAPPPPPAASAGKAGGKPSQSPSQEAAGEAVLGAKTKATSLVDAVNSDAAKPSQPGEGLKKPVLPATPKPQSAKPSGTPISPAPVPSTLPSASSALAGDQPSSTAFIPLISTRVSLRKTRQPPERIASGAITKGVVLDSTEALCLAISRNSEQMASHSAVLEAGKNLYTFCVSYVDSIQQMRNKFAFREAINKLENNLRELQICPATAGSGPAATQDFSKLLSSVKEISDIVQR

5FAM-GGAYAAPFKKKA [III-67B]
t1/2, time at which 50% of the peptide was degraded in the cytosolic lysate [1]: 1.3 min
t50% P, time required for 50% of the peptide to be phosphorylated by Abl-1 kinase [2]: 190 min
